# Measured values published in BindingDB's records for doi:10.1007/s002100000299 (University of Oslo, 2001).
# Several values for one entry are separate records, joined by “and”; a condition that tells them apart may be missing. Identical values can stand only once.
# Biological target: 5-hydroxytryptamine receptor 4 (Homo sapiens, UniProt Q13639)
# Sequence (Q13639 whole entry): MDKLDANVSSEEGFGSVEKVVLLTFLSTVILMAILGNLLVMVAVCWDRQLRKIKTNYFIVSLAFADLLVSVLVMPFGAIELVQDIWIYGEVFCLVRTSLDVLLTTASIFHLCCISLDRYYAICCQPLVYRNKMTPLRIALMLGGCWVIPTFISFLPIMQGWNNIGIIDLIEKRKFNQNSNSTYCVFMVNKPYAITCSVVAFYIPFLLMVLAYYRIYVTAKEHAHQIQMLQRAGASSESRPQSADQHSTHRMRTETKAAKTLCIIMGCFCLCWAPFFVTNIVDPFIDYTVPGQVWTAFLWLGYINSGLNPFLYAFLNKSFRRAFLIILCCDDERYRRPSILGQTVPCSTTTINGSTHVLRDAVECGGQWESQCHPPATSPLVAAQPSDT
row,SMILES,Ki
1,CN1C2CCC1CC(OC(=O)c1c[nH]c3ccccc13)C2 (stereo not given),158 nM and 79.4 nM
2,O=C(OCCN1CCCCC1)c1c[nH]c2ccccc12 [CAS_135938-17-9],2 nM and 1.3 nM
3,Cn1cc(C(=O)OCC2CCN(CCNS(C)(=O)=O)CC2)c2ccccc21 [GR 113808],0.079 nM and 0.05 nM
4,NCCc1c[nH]c2ccc(C(N)=O)cc12 [[3H]-5-carboxamidotryptamine],> 10000 nM
5,"COc1ccc2[nH]cc(CCN)c2c1 [tryptamine, 5-Methoxy]",316 nM and 251 nM
